According to patent US12448655B2, “Antibiotic susceptibility of microorganisms and related methods and systems” (CALIFORNIA INSTITUTE OF TECHNOLOGY, priority 2017, dated 2025):

How the values were obtained:
Assay type in all cases: cell-based
Klebsiella pneumoniae = experiment: Minimum inhibitory concentrations (MICs) of Enterobacteriaceae clinical isolates
From the text: (§1) Clinical isolates referenced, minimum inhibitory concentrations (MICs), and categorical susceptibility based on CLSI breakpoints The below list of organisms are examples of clinically-relevant susceptible and resistant Enterobacteriaceae clinical isolates. Minimum inhibitory concentrations (MICs) are provided in μg/mL for the antibiotics listed.
(§2) Isolates, growth conditions, and antibiotic exposure conditions. 25 de-identified clinical isolates were obtained from the UCLA Clinical Microbiology Laboratory (CML) and the CDC's Enterobacteriaceae Carbapenem Breakpoint panel. In the case of isolates obtained from the UCLA CML, MICs were determined as described previously. Genotypic testing of the two Ec and two Kp isolates selected for their lack of known β-lactamase genes was performed by UCLA CML using a previously published assay and separately at the Keck School of Medicine of USC using the FDA-approved Cepheid Xpert® Carba-R test. Whole genome sequencing of the single Ebs isolate selected for its lack of known resistance genes was performed by the CDC [3]. All isolates were stored as glycerol stocks at −80° C. Glycerol stocks were streaked onto Trypticase Soy Agar with 5% sheep's blood (Becton Dickinson, Franklin Lakes, NJ, USA) and grown overnight at 37° C. Prior to experiments, a small clump of cells was resuspended in 2 mL Brain Heart Infusion Broth (BHI, Becton Dickinson) at 37° C.+5% CO2 with 500 rpm shaking for 2 to 4 h until visibly turbid. OD600 of the cultures was then measured, and working cultures prepared at an OD600 of 0.01-0.07 and grown for 50-145 min at 37° C.+5% CO2 with 500 rpm. Working cultures were then diluted 10× into control and treated aliquots for antibiotic exposure. For validation experiments, antibiotic exposure was performed in 100 μL volumes consisting of 80 μL Mueller Hinton II Broth (Becton Dickinson), 5 μL nuclease-free H2O (NF—H2O), 5 μL 20× antibiotic stock solution, and 10 μL of working culture. In control aliquots, antibiotic stock solution was replaced with NF—H2O. For filtration experiments, antibiotic exposure was performed in 100 μL volumes consisting of 65 μL Mueller Hinton II Broth (Becton Dickinson), 21 μL nuclease-free H2O (NF—H2O), 4 μL 25× antibiotic stock solution, and 10 μL of working culture. In control aliquots, antibiotic stock solution was replaced with NF—H2O.

Escherichia coli = experiment: as above
From the text: as §1, §2

Neisseria gonorrhoeae = experiment: AST by inaccessible DNA, 2 incubation steps (media; TRIS pH 8.5 enhancing buffer), qPCR (Example 3); details: 30 min ABX exposure then 20 min TRIS pH 8.5 ± 1% Triton X-100
Description: Antibiotic susceptibility test was performed with methods herein described comprising 2 sequential incubation steps, and in particular • a primary incubation in which a sample is contacted with media, antibiotic (or water in untreated sample), and a nuclease (such as DNaseI), and optionally an enhancer (such as 1% Triton X-100); and • a secondary incubation in which a cell suspension from primary incubation is contacted with enhancers such as 50 mM TRIS buffer at pH 8.5 and/or 1% Triton X-100, possibly using dilution of the cell suspension from the antibiotic exposure by 90-95% (such as 50 μL into 450 μL, 25 μL into 475 μL) removing most antibiotic, culture media, and other components from the primary incubation for the enhancer condition.
The samples were mixed before transferring 25 μL or 50 μL of the sample to the prepared secondary incubation (enhancer) tubes. The charts in step 1 were followed to add the appropriate volume of cells to each tube. Mix the tubes and proceed to step 9 immediately
Extraction was performed following the “DEB Extraction” description in the general methods using Eppendorf tubes. […]
Detection of DNA was performed following the “qPCR” description in the general methods. Quantify all DEB-extracted DNA using the Primer mix=(10 μM forward and reverse) targeting N. gonorrhoeae porA gene. […]

Compound	Antibiotic MICs (Klebsiella pneumoniae; isolate Kp_1)	Antibiotic MICs (Klebsiella pneumoniae; isolate Kp_2)	Antibiotic MICs (Klebsiella pneumoniae; isolate Kp_7) [µg/mL]	Antibiotic MICs (Klebsiella pneumoniae; isolate Kp_8) [µg/mL]	Antibiotic MICs (Escherichia coli; isolate Ec_1)	Antibiotic MICs (Escherichia coli; isolate Ec_2)	Antibiotic MICs (Escherichia coli; isolate Ec_3)	Antibiotic MICs (Escherichia coli; isolate Ec_4)	Antibiotic MICs (Escherichia coli; isolate Ec_38) [µg/mL]	Antibiotic MICs (Escherichia coli; isolate Ec_39) [µg/mL]	Antibiotic MICs (Escherichia coli; isolate Ec_40)	Antibiotic MICs (Escherichia coli; isolate Ec_41) [µg/mL]	fold change (1/FC) of DNA between 30 and 50 minute measurements (Neisseria gonorrhoeae; resistant isolate (ng_44))	fold change (1/FC) of DNA between 30 and 50 minute measurements (Neisseria gonorrhoeae; susceptible-treated samples (ng_17))
CO/N=C(\C(=O)N[C@@H]1C(=O)N2C(C(=O)O)=C(CSc3nc(=O)c(=O)[nH]n3C)CS[C@H]12)c1csc(N)n1 [CRO, ceftriaxone]	<=1 μg/mL	<=1 μg/mL	>32	>32	<=1 μg/mL	<=1 μg/mL	<=1 μg/mL	<=1 μg/mL	>32	>32	>=64 μg/mL	>32		
penicillin													approximately 1.5	> 5
